Counter-ions that a name gives are not always drawn. Like-named read-outs stand apart in the source and are kept apart here.
Tests used:
[1] = test system: phospho-ERK in HCT-116 cells; test: HCT-116 cell pERK assay (AlphaScreen SureFire); type: cell-based; conditions: for IC50: Homo sapiens, HCT-116 cells, B-Raf wild type, K-Ras mutation, 4 hours, read-out: IC50 reduction of phospho-ERK signal
Procedure: Examples of Formula I are tested against HCT-116 cells harboring wild type B-Raf and K-Ras mutation. The phospho-ERK activities are evaluated as described below.
HCT-116 cells (catalog #CCL-247) are obtained from the American Type Culture Collection (ATCC, Manassas, Va.). Briefly, cells are grown in McCoy's 5A supplemented with 10% characterized fetal bovine serum (Invitrogen, Carlsbad, Calif.), and 1% Penicillin/Streptomycin/L-Glutamine at 37 degrees Celsius, 5% CO2, and 95% humidity. Cells are allowed to expand until reaching 75-90% confluency at which point they are subcultured or harvested for assay use. HCT-116 cells suspended in complete media are added to 384-well tissue culture treated plates (3×10^5 cells/mL; 7,500 cells per well). The cells are incubated overnight at 37 degrees Celsius, 5% CO2, and 95% humidity. Next, test compound or DMSO diluted in complete media is added to the wells (0.25% final DMSO concentration). The plates are then incubated for 4 hours at 37 degrees Celsius, 5% CO2, and 95% humidity. Following compound incubation, the cells are lysed at 4° C. for 20 minutes with shaking Cell lysates are centrifuged and the supernatant is transferred to a new plate. An aliquot of each lysate is transferred to a white 384-well assay plate. Using the AlphaScreen SureFire pERK kit (Perkin-Elmer, Waltham, Mass.), an acceptor bead mixture is added to each well and incubated for 2 h at room temperature in the dark. A donor bead mixture is then added to each well and incubated for 2 h at room temperature in the dark. Plates are read using a Synergy2 plate reader (Biotek, Winooski, Vt.) in Plate Mode with Timing Control. Read: (F)1: excitation: 680/30 nm, emission: Plug. 2: Excitation: Plug, emission: 570/100 nm. Top mirror 635 nm. Data is analyzed using Prism software (Graphpad, San Diego, Calif.) to calculate IC50 values and Excel software (Microsoft, Redmond, Wash.) to calculate stimulation compared to control.

[2] = test system: phospho-ERK in A375 (B-Raf V600E) xenograft; test: A375 mouse xenograft pharmacodynamic assay (tumor pERK by ELISA); type: in vivo, mice; conditions: A-375, 20 mg/kg oral, 2 h post dose, vs vehicle, read-out: Measured pERK inhibition 2 h post dose
Procedure: To evaluate the in vivo pharmacodynamic (PD) effects of compounds of Formula I, an A375 (B-Raf V600E) xenograft model is employed. Briefly, 10×10^6 A375 tumor cells (ATCC) are prepared in a 1:1 matrigel mix (0.2 mL total volume) and implanted by subcutaneous injection in hind leg of nude female mice. A total of 4 mice each for each dosing group are employed. Treatment is initiated with oral administration (gavage) of test compound or vehicle (20% captisol, 25 mM phosphate, pH2.0) in 0.2 mL volume when average tumor size reaches approximately 300 mg. After a fixed time interval, the tumors are harvested and the phospho-ERK levels are measured by ELISA (Enzyme-linked immunosorbent assay). Treated groups are compared to the vehicle control group to calculate % inhibition.

[3] = test system: A375res cells
Source text: (§6) A vemurafenib-resistant cell line is generated by chronic treatment of the human melanoma cell line A375 (ATCC) harboring the B-Raf V600E mutation with increasing concentrations PLX4720.

[4] = test system: A375res cells; test: Proliferation assay in vemurafenib-resistant A375res melanoma cells; conditions: for IC50: Homo sapiens, 72 h
Source text: as §6

[5] = test system: A375 xenograft tumor; test: A375 mouse xenograft efficacy model; type: in vivo, mice; conditions: oral, 21 days
Procedure: (§1) To further evaluate in vivo activity of compounds of Formula I, an A375 xenograft tumor model is utilized. Briefly, 10×10^6 cells in a 1:1 matrigel mix (0.2 mL total volume) are implanted by subcutaneous injection in the hind leg of nude female mice. A total of 8-10 mice in each group are used. Treatment is initiated with oral administration (gavage) of a test compound or vehicle (20% captisol, 25 mM phosphate, pH2.0) in 0.2 mL volume when tumor size reaches approximately 300-500 mg. Test compound is orally dosed twice or thrice a day for 21 days. Tumor growth and body weight are monitored over time to evaluate efficacy and signs of toxicity. Bidimensional measurements of tumors are performed twice a week and tumor volumes are calculated based on the following formula: (Tumor Volume)=[(L)×(W^2)×(π/6)] where L is mid-axis length and W is mid-axis width. Tumor volume data are transformed to a log scale to equalize variance across time and treatment groups. The log volume data are analyzed with a two-way repeated measures analysis of variance by time and treatment using the MIXED procedures in SAS software (version 8.2). The correlation model for the repeated measures is spatial power. Treated groups are compared to the control group at each time point. The MIXED procedure is also used separately for each treatment group to calculate adjusted means and standard errors at each time point. Both analyses account for the autocorrelation within each animal and the loss of data that occurs when animals with large tumors are removed from the study early. The adjusted means and standard errors are plotted for each treatment group versus time.

[6] = Body weight in A375 mouse xenograft efficacy model; type: in vivo, mice; conditions: oral, 21 days
Procedure: as §1

[7] = biological target: A-Raf (Homo sapiens (Human), UniProt P10398); test: ActivX KiNativ A375 whole cell lysate assay; type: binding
A-Raf, sequence (P10398 whole entry): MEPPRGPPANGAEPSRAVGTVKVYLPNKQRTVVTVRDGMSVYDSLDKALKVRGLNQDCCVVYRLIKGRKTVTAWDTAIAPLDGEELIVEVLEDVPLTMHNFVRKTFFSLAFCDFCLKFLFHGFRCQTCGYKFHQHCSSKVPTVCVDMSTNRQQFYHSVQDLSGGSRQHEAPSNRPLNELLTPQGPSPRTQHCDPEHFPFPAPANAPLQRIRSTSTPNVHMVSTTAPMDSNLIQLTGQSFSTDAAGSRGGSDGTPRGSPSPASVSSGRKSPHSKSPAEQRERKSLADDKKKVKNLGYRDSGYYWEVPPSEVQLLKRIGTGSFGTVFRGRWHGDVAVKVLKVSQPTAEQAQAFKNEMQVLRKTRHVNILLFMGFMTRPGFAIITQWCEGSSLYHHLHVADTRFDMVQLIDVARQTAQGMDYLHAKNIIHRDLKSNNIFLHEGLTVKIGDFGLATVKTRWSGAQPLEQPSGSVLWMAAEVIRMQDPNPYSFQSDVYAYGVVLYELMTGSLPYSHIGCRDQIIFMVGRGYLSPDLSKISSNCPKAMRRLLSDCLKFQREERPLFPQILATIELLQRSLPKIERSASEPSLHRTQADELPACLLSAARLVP
Procedure: (§2) To further evaluate the enzymatic pan Raf activities of test compounds, they are evaluated in a KiNativ assay developed and carried out by ActivX Biosciences Inc. using whole cell lysates of A375 cells. A375 cells are human melanoma cells with a B-Raf V600E mutation.
(§3) Sample preparation: A375 cells from ATCC are lysed by sonication in commercially available lysis buffer, cleared by centrifugation, and the resulting supernatant gel filtered into a commercially available kinase reaction buffer containing 20 mM MnCl2. Final protein concentration of lysates are 10 mg/mL. 5 μL of each test compound is added from 100 μM, 10 μM, 1 μM, or 0.1 μM stock solutions in DMSO to 500 uL of lysate in duplicate for final concentrations of 1 μM, 0.1 μM, 0.01 μM, and 0.001 μM. 5 μL of DMSO is added to 500 μL of lysate in quadruplicate for controls. After 15 minute incubation, desthiobiotin-ATP acylphosphate probe is added to each sample to a final concentration of 5 μM and incubated with the samples for 10 minutes. Following the probe reaction, samples are prepared for targeted mass spectrum analysis using ActivX standard protocol. Briefly, samples are prepared for trypsin digestion (denature, reduce alkylate), digested with trypsin, and desthio-biotinylated peptides are enriched on streptavidin resin.
(§4) Data collection: Enriched peptide samples are analyzed by LC-MS/MS on a Thermo-LTQ Velos ion trap mass spectrometer using ActivX data collection methodology for A375 cells.
(§5) Data analysis: All quantitation is performed by extracting characteristic fragment ion signals from targeted MS/MS spectra and comparing signals in control and treated samples. ActivX software is used with manual validation/visual inspection performed as needed based on data flagging/filtering measures. All inhibition data points are visually verified, as are all data points showing variability outside of normal limits.

[8] = biological target: B-Raf (V600E) (Homo sapiens (Human), UniProt P15056, V600E); test: ActivX KiNativ A375 whole cell lysate assay; type: binding
B-Raf (V600E), sequence (P15056 whole entry V600E): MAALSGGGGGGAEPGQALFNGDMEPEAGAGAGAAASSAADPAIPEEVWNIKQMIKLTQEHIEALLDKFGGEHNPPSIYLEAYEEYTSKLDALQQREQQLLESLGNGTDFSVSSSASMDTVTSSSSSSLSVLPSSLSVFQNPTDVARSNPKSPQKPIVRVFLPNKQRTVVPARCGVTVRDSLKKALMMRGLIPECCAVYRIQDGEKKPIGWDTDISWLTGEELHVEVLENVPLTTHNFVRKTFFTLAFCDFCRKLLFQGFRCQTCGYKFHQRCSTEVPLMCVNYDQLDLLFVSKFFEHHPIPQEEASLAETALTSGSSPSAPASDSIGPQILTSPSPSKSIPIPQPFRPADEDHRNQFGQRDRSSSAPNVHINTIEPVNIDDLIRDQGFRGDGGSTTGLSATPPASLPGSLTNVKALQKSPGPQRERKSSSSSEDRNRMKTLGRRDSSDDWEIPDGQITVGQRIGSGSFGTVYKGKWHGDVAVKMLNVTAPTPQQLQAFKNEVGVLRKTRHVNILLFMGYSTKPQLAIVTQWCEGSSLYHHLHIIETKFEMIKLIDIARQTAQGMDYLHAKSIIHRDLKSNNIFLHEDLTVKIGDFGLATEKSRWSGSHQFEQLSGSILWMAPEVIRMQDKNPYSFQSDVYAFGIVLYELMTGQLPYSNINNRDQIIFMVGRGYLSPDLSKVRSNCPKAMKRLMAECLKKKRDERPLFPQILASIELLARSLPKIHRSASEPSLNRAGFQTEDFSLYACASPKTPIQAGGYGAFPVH
Procedure: as §2, §3, §4, §5

[9] = biological target: C-Raf (Homo sapiens (Human), UniProt P04049); test: ActivX KiNativ A375 whole cell lysate assay; type: binding
C-Raf, sequence (P04049 whole entry): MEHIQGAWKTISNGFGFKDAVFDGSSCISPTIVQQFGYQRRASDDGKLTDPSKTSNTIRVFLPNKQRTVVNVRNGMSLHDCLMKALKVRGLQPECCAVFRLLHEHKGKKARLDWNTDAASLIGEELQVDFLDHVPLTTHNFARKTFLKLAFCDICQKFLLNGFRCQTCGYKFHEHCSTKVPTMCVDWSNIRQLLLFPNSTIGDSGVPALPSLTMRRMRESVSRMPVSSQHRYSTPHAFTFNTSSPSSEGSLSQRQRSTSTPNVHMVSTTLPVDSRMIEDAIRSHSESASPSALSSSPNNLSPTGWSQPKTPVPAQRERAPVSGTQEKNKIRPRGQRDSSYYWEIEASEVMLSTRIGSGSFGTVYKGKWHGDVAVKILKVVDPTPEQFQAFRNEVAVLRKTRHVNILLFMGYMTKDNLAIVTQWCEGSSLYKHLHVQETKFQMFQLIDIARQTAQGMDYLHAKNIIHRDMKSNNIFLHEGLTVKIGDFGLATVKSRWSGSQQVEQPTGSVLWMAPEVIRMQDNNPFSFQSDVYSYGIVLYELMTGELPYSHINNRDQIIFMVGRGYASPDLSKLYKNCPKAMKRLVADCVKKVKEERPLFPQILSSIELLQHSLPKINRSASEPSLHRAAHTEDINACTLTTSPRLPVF
Procedure: as §2, §3, §4, §5

[10] = test system: A-Raf, B-RafV600E and C-Raf; test: ActivX KiNativ A375 whole cell lysate assay, summary over Raf isoforms; type: binding, human; conditions: A375 cells; summary of Table 1
Procedure: as §2
as §3, with “Following the probe reaction, samples are prepared for targeted mass spectrum analysis using ActivX standard protocol. Briefly, samples are prepared for trypsin digestion (denature, reduce alkylate), digested with trypsin, and desthio-biotinylated peptides are enriched on streptavidin resin.” left out
as §4
Data analysis: All quantitation is performed by extracting characteristic fragment ion signals from targeted MS/MS spectra and comparing signals in control and treated samples. […]

[11] = test system: A375 cells; test: A375 cell proliferation assay (72 hour); type: cell-based; conditions: Homo sapiens, A-375, parental A375 cells
Procedure: A375 cells (catalog #CRL-1619) are obtained from the American Type Culture Collection (ATCC, Manassas, Va.). Briefly, cells are grown in DMEM High Glucose supplemented with 10% characterized fetal bovine serum (Invitrogen, Carlsbad, Calif.) and 1% Penicillin/Streptomycin/L-Glutamine at 37 degrees Celsius, 5% CO2, and 95% humidity. Cells are allowed to expand until reaching 70-95% confluency at which point they are subcultured or harvested for assay use. A serial dilution of test compound is dispensed into a 384-well black clear bottom plate in triplicate. Six hundred twenty-five cells are added per well in 50 μL complete growth medium in the 384-well plate. Plates are incubated for 67 hours at 37 degrees Celsius, 5% CO2, and 95% humidity. […] Plates are read on a Synergy2 reader (Biotek, Winooski, Vt.) using an excitation of 540 nm and an emission of 600 nm. Data is analyzed using Prism software (Graphpad, San Diego, Calif.) to calculate IC50 values.

[12] = twice a day at 12 mg/kg or thrice per day at 8 or 12 mg/kg

Compound | IC50 [1] | IC50 shift A375 to A375res [3] | IC50 ([4]; read-out: absolute IC50 values) | inhibition in vivo at 20 mg/kg [2] | further results
CNc1cc2nc(C)c(-c3cc(NC(=O)NCCC(C)(C)F)c(F)cc3C)cc2cn1 [Example 76, 1-(3-fluoro-3-methylbutyl)-3-(2-fluoro-4-methyl-5-(2-methyl-7-(methylamino)-1,6-naphthyridin-3-yl)phenyl)urea] | 2 to 96 nM | 0.5-4.9 fold | 9 to 504 nM |  | IC50 [7]: 120 nM; IC50 ([8]; first B-Raf (V600E) column): 16 nM; IC50 ([8]; second B-Raf (V600E) column): 22 nM; IC50 [9]: 170 nM; IC50 [10]: < 170 nM; tumor growth ([5]; twice a day at 10 or 30 mg/kg): tumor growth inhibition and tumor growth regression; animal body weight loss ([6]; twice a day at 10 or 30 mg/kg): minimal animal body weight loss
CNc1cc2nc(C)c(-c3cc(NC(=O)NC4CCC(F)(F)CC4)c(F)cc3C)cc2cn1 [Example 12, 1-(4,4-difluorocyclohexyl)-3-(2-fluoro-4-methyl-5-(2-methyl-7-(methylamino)-1,6-naphthyridin-3-yl)phenyl)urea hydrochloride] | 2 to 96 nM | 0.5-4.9 fold | 9 to 504 nM | 58% | 
CNc1cc2nc(C)c(-c3cc(NC(=O)NCCC(C)(C)C#N)c(F)cc3C)cc2cn1 [Example 9, 1-(3-cyano-3-methylbutyl)-3-(2-fluoro-4-methyl-5-(2-methyl-7-(methylamino)-1,6-naphthyridin-3-yl)phenyl)urea] | 2 to 96 nM | 0.5-4.9 fold | 9 to 504 nM | 78% | 
CNc1cc2nc(C)c(-c3cc(NC(=O)NC[C@H](O)C(C)(C)C)c(F)cc3C)cc2cn1 [Example 57, (R)-1-(2-fluoro-4-methyl-5-(2-methyl-7-(methylamino)-1,6-naphthyridin-3-yl)phenyl)-3-(2-hydroxy-3,3-dimethylbutyl)urea] | 2 to 96 nM | 0.5-4.9 fold | 9 to 504 nM | 96% | 
CNc1cc2nc(C)c(-c3cc(NC(=O)NCCC(C)(C)OC)c(F)cc3C)cc2cn1 [Example 92, 1-(2-fluoro-4-methyl-5-(2-methyl-7-(methylamino)-1,6-naphthyridin-3-yl)phenyl)-3-(3-methoxy-3-methylbutyl)urea hydrochloride] | 2 to 96 nM | 0.5-4.9 fold | 9 to 504 nM | 77% | 
CCCS(=O)(=O)Nc1ccc(F)c(C(=O)c2c[nH]c3ncc(-c4ccc(Cl)cc4)cc23)c1F [vemurafenib, reference compound] |  | more than 57 fold |  |  | IC50 [11]: 175 nM; effect on pERK signal ([1]; at concentrations up to about 3 uM): stimulates the pERK signal; IC50 ([4]; read-out: IC50 proliferation): > 10000 nM
CCCS(=O)(=O)Nc1ccc(F)c(C(=O)c2c[nH]c3ncc(Cl)cc23)c1F [PLX4720, N-[3-(5-chloro-1H-pyrrolo[2,3-b]pyridine-3-carbonyl)-2,4-difluorophenyl]propane-1-sulfonamide, reference compound] |  |  |  |  | IC50 [11]: 369 nM; IC50 shift A375 to A375res ([4]; 72 hour proliferation assay): more than 27 fold; IC50 ([4]; read-out: IC50 proliferation): > 10000 nM

Further lines, with some results ahead:

IC50 [1] | IC50 shift A375 to A375res [3] | IC50 ([4]; read-out: absolute IC50 values) | Compound | inhibition in vivo at 20 mg/kg [2] | further results
2 to 96 nM | 0.5-4.9 fold | 9 to 504 nM | CNc1cc2nc(C)c(-c3cc(NC(=O)NCCC(C)(C)C(F)(F)F)c(F)cc3C)cc2cn1 [Example 89, 1-(2-fluoro-4-methyl-5-(2-methyl-7-(methylamino)-1,6-naphthyridin-3-yl)phenyl)-3-(4,4,4-trifluoro-3,3-dimethylbutyl)urea hydrochloride] | 84% | 
2 to 96 nM | 0.5-4.9 fold | 9 to 504 nM | Cc1nc2cc(NCCO)ncc2cc1-c1cc(NC(=O)NCCC(C)(C)C)c(F)cc1F [Example 47, 1-(2,4-difluoro-5-(7-(2-hydroxyethylamino)-2-methyl-1,6-naphthyridin-3-yl)phenyl)-3-(3,3-dimethylbutyl)urea] | 50% | 
2 to 96 nM | 0.5-4.9 fold | 9 to 504 nM | Cc1cc(F)c(NC(=O)NCCC(C)(C)F)cc1-c1cc2cnc(N)cc2nc1C [Example 79, 1-(5-(7-amino-2-methyl-1,6-naphthyridin-3-yl)-2-fluoro-4-methylphenyl)-3-(3-fluoro-3-methylbutyl)urea] | 87% | tumor growth ([5]; twice a day at 15 or 30 mg/kg): tumor growth inhibition; animal body weight loss ([6]; twice a day at 15 or 30 mg/kg): minimal animal body weight loss
2 to 96 nM |  |  | CNc1cc2nc(C)c(-c3cc(NC(=O)NCCC(C)(C)C)c(F)cc3F)cc2cn1 [Example 18, 1-(2,4-difluoro-5-(2-methyl-7-(methylamino)-1,6-naphthyridin-3-yl)phenyl)-3-(3,3-dimethylbutyl)urea] | 93% | IC50 [7]: 31 nM; IC50 ([8]; first B-Raf (V600E) column): 35 nM; IC50 ([8]; second B-Raf (V600E) column): 37 nM; IC50 [9]: 20 nM; IC50 [10]: < 170 nM; tumor growth [5, 12]: tumor growth inhibition; animal body weight loss [6, 12]: minimal animal body weight loss

Reference: US9187474B2, “Raf inhibitor compounds” (Deciphera Pharmaceuticals, LLC, priority 2012, dated 2015)
